In US20200061018A1, “METHODS AND COMPOSITIONS FOR TREATING PARKINSON'S DISEASE” (Cove Bio LLC, priority 2016, published 2020):

System: patient with Parkinson's disease, positive for Malassezia infection
Experiment: Example 3: Parkinson's patient positive for Malassezia infection given intravenous amphotericin B deoxycholate plus intranasal saline irrigation
Assay type: in vivo, human
Conditions: i.v. 1.0 mg/kg/day for 3 weeks in combination with intranasal aqueous saline solution, follow-up 6 months after the course
Method: A patient is clinically evaluated by a physician for deterioration of health because of their progression of symptoms of Parkinson's disease which include tremor, speech dysfunction, aberrant personality changes, abulia, and difficulties with mentation. Patient has no overt symptoms of Malassezia infection. […] Patient is treated with an intravenous administration of a commercially available amphotericin formulation of amphotericin B deoxycholate at 1.0 mg/kg/day in combination with a twice daily treatment regimen of intranasal aqueous saline solution. The solution comprises a mixture of 1 teaspoon of baking soda, 1.5 teaspoons of salt, and 1 quart sterilized distilled water. The solution is administered intranasally using a pulsating irrigation device. The pulsating irrigation device sends a gentle pulse of the solution into the nose via a nasal irrigation tip that can reach into and contact with the upper nasal passages. The amphotericin B treatment regimen is discontinued after 3 weeks. The total amount of amphotericin B administered to the patient over the course of treatment is about 1.8 grams. The nasal wash is continued to be administered to the patient indefinitely on a once daily basis. Routine follow-up is conducted by the physician 6 months after completion of the amphotericin B treatment course.

Substance: amphotericin B deoxycholate
- caregiver report of symptoms: improved mood, improved affect, decreased fatigue, decreased abulia, and improved mentation
- progression of Parkinson's disease measured with the MDS-UPDRS (person): halted
